Data reported in patent publication US20250144085A1, “PHARMACEUTICAL COMPOSITION FOR PREVENTING OR TREATING CANCER COMPRISING OMEPRAZOLE BROWNING MATTER” (NEW CANCER CURE BIO CO., LTD, priority 2021, published 2025).

Test system: pancreatic cancer (MIA PaCa2) cell line
Assay: sulforhodamine B colorimetric assay (SRB assay) of cancer cell death
Type: cell-based
Details: 48 hours; for Cancer cell killing rate (%) by treatment with omeprazole (KN510) degradation substance: 0.1%; for Cancer cell growth rate following treatment with omeprazole (KN510) degradation substance, average(%): treated at a concentration of 0.1%
Method: In order to confirm the anticancer activity of the omeprazole (KN510) degradation substances (acid degradation substances) and base degradation substances prepared in Example 1 above, the cancer cell killing effect of each of the omeprazole (KN510) degradation substances was determined. The extent of cancer cell death was measured by sulforhodamine B colorimetric assay (SRB assay), which was performed as follows: A pancreatic cancer (MIA PaCa2) cell line (100 μ ? ) was inoculated into 96-well cell culture plates at a density ranging from 7,500 to 10,000 cells/well depending on the doubling time. Each of the omeprazole (KN510) degradation substances prepared in Example 1 above was treated at a concentration of 0.1% and incubated in a CO2 incubator for 48 hours, after which the assay was terminated by adding cold TCA. Cells were fixed intact by gently adding 50 μl of cold 50% (w/v) TCA (final concentration: 10% TCA) and incubated at 4° C. for 60 min. The supernatant was discarded, and the plate was washed five times with distilled water and then air dried. A solution (100 μl) of 0.4% (w/v) sulforhodamine B in 1% acetic acid was added to each well, and the plate was left at room temperature for 10 min. After staining, unbound dye was removed by washing five times with 1% acetic acid, and the plate was air-dried. The bound dye was then solubilized with 10 mM trizma base, and the absorbance was recorded at 515 nm using an automated plate reader. All experiments were performed in triplicate, and data were expressed as mean±standard deviation values.

How did the “Cancer cell killing rate (%) by treatment with omeprazole (KN510) degradation substance” value (from here on “Cancer cell killing rate (%)”) (compared to the control group using the values in Table 1) turn out when `COc1ccc2[nH]c([S+]([O-])Cc3ncc(C)c(OC)c3C)nc2c1` (centres unmarked) [omeprazole (KN510), omeprazole] was run?
The value was “about 32%”.

And the “Cancer cell killing rate (%)” value (compared to the control group using the values in Table 1, listed as KN510 + 1M HCl 0 μl)?
The value was 31.85%.

And the “Cancer cell killing rate (%)” value (compared to the control group using the values in Table 1, listed as KN510 + 1M NaOH 0 μl)?
Its value is 32.82%.

What about the “Cancer cell growth rate following treatment with omeprazole (KN510) degradation substance, average(%)” value (control = 100.00, listed as KN510 + 1M HCl 0 μl) of the same molecule?
The value was 68.15%.

And the “Cancer cell growth rate following treatment with omeprazole (KN510) degradation substance, average(%)” value (control = 100.00, listed as KN510 + 1M NaOH 0 μl)?
The value was 67.18%.
